Measured values: patent US12104192B2, “Method of preparing primary amines from amino acids using enzymatic conversion” (KOREA ADVANCED INSTITUTE OF SCIENCE AND TECHNOLOGY, priority 2020, dated 2024)

The compounds below were run on valine decarboxylase (assay: Enzymatic activity assay of purified valine decarboxylase with amino acid substrates, HPLC detection of primary amine). Conditions: 1 mM amino acid, 0.1 mM PLP, 150 μg purified his-tagged enzyme, 50 mM potassium phosphate buffer pH 7.5, 37° C., 2 hours.
Assay type: biochemical, Streptomyces viridifaciens
Description: An enzymatic activity assay was performed using a 50 mM potassium phosphate buffer (pH 7.5), and the substrate and enzyme used for the assay were added in the following amounts to the enzyme reaction solution.
Amino acids used as substrates were used at a concentration of 1 mM, and the amino acids used herein were L-alanine, L-2-aminobutyrate, 2-aminoisobutyrate, L-norvaline, L-valine, L-isovaline, L-norleucine, L-leucine, L-isoleucine, 1-aminocyclopentanecarboxylic acid, 1-aminocyclohexanecarboxylic acid, and L-2-phenylglycine. 0.1 mM pyridoxal phosphate (PLP) and 150 μg of the purified valine decarboxylase were added, followed by conducting reaction at 37° C. for 2 hours, and the sample after the reaction was analyzed by HPLC to identify primary amine.
Primary amine production was analyzed using HPLC (1100 Series HPLC; Agilent Technologies, Santa Clara, CA). The primary amine derivatization for analysis was performed in an automatic manner before analysis using an o-phthaldialdehyde (OPA; Sigma, St. Louis, MO) reagent. The OPA reagent for derivatization was prepared by dissolving 0.20 g of OPA reagent in 9.0 mL of methanol and then adding 1.0 mL of 0.40 M (pH 9.0) borate buffer and 160 μL of 2-mercaptoethanol thereto. For derivatization, 1 μL of the sample was mixed with 5 μL of 0.40 M (pH 9.0) borate buffer. Then, 1 μL of the OPA reagent for derivatization prepared above was added thereto, followed by HPLC analysis. Analysis was performed at 25° C. using an Eclipse plus C18 column (4.6×150 mm; Agilent Technologies). Solvent A for analysis was prepared by mixing 1.4 g/L of Na2HPO4 and 3.8 g/L of Na2B4O7·10H2O with 8 mg/L of NaN3, and adjusting the final pH of the resulting mixture to 7.2 using HCl. Solvent B was prepared by mixing 45% acetonitrile and 45% methanol with 10% H2O based on volume %. The solvent was fed at a rate of 2 mL/min. […] The derivatized secondary amines could be analyzed by detecting light with a wavelength of 230 nm using a variable wavelength detector (G1314A; Agilent Technologies).

Row | Compound | conversion of the amino acid substrate to the corresponding primary amine by valine decarboxylase
1 | NC1(C(=O)O)CCCC1 [1-aminocyclopentanecarboxylic acid] | successfully converted
2 | C[C@H](N)C(=O)O [L-alanine] | successfully converted
3 | CC(C)(N)C(=O)O [2-aminobutyrate, 2-aminoisobutyrate] | successfully converted
4 | CC[C@H](C)[C@H](N)C(=O)O [L-isoleucine] | successfully converted
5 | CC[C@](C)(N)C(=O)O [L-isovaline] | successfully converted
6 | CC(C)C[C@H](N)C(=O)O [L-leucine] | successfully converted
7 | CCC[C@H](N)C(=O)O [L-norvaline] | successfully converted
8 | NC1(C(=O)O)CCCCC1 [1-aminocyclohexanecarboxylic acid] | successfully converted
9 | CCCC[C@H](N)C(=O)O [L-norleucine] | successfully converted
10 | L-2-aminobutyrate | successfully converted
11 | N[C@H](C(=O)O)c1ccccc1 [L-2-phenylglycine] | successfully converted
12 | CC(C)[C@H](N)C(=O)O [L-valine] | successfully converted
